# Assay results reported in patent publication US20120156715A1, “Environmental Sentinel Biomonitor System (ESB)” (priority 2010, published 2012).
# Read-outs that look alike come from different tables or passages of the source.
# Legend:
# RTgill-W1 cells [1] = format: cell-based, rainbow trout, Oncorhynchus mykiss
# RTgill-W1 cells [2] = assay: Long-term storage testing of RTgill-W1 fluidic biochips with PCP exposure (ECIS); format: cell-based, rainbow trout, Oncorhynchus mykiss; details: 9.4 μM
# Method: The following description provides an example of a method for long-term testing of RTgill-W1 fluidic biochips according to an embodiment of the invention. In order to study the effects of cold storage with no media replenishment on the viability and sensitivity of the RTgill-W1 cells, fluidic biochips are seeded, held at 20° C., and media changes are performed on days 4 and 7 as described above, then held at 6° C. with no media replenishment for up to one year. Three chips are removed for viability assessment and ECIS testing using the 9.4 μM detection level for PCP (FIG. 1) at 4, 8, 12, 16, 20, 24, 32, 38, and 52 weeks and the chemical exposure procedure described above.
# The following description provides an example of a method for statistical analysis according to an embodiment of the invention. A curve discrimination program using MATLAB (available from The MathWorks, Inc., Natick, Mass.) is used to perform the statistical analysis. […] This program analyzes impedance data from control and toxicant-exposed cells every minute during a 60 minute window. The overall difference between the two groups of curves is compared at each time point, and the difference between their averages is assessed relative to the within-group variability. A confidence level of […] (p<0.001) is used to establish statistical significance. Functional data analysis techniques are used to extend the standard single time point analysis of variance approach to a curve consisting of approximately 60 points. The lowest toxicant concentrations that cause a significant change in impedance in at least ten consecutive time intervals over a 60 minute period are reported as the detection levels in FIG. 1.
# Unfed RTgill-W1 cells are maintained at 6° C. for different durations and subsequently tested with PCP exposures at 9.4 μM. […] The line with triangle data points and the line with square data points show, respectively, 1-hour and 4-hour average of response difference between the control and treatment channels at each respective storage time for 3 replicate fluidic biochips. Significance at each time point (p<0.001) is depicted by an * and requires a positive detection for all 3 replicate chips using the curve discrimination program. […] If the impedance patterns shown for the 12° C. and 20° C. chips are predictive indicators of the impedance patterns of the 6° C. chips, the 6° C. chips may remain viable for approximately 18 months, but most likely not beyond 2 years of storage.
# [3] = one hour exposure, MEG = Military Exposure Guideline, HLC = Human Lethal Concentration, ECIS impedance
Compound,chips in which the chemical is detected (RTgill-W1 cells [1]; at levels above the HLC),"concentration at which the chemical is detected, relative to MEG and HLC (RTgill-W1 cells [1]; [3])",change in impedance compared to controls (RTgill-W1 cells [1]),"concentration at which the chemical is detected, relative to MEG and HLC (RTgill-W1 cells [1])",also measured
"C=CC#N [Acrylonitrile, acrylonitrile]",3 out of 3,above the HLC,,,
CNC(=O)O/N=C/C(C)(C)SC [aldicarb],3 out of 3,above the HLC,,,
"Cl.N [ammonia, ammonium chloride]",,,,,"change in impedance compared to controls (RTgill-W1 cells [1]; one hour exposure, p<0.001): significant decrease"
[N-]=[N+]=[N-] [azide],,,significant decrease,between the MEG and the HLC,
"O=S(=O)([O-])[O-].[Cu+2] [copper, copper sulfate]",,,increased impedance,between the MEG and the HLC,
"O=C([O-])CF.[Na+] [fluoroacetate, sodium fluoroacetate]",,,,above the HLC,chips in which the chemical is detected (RTgill-W1 cells [1]): 3 out of 3
COP(N)(=O)SC (stereo not drawn) [methamidophos],3 out of 3,above the HLC,,,
COP(=S)(OC)Oc1ccc([N+](=O)[O-])cc1 [methyl parathion],,,significant decrease,between the MEG and the HLC,
CN1CCCC1c1cccnc1 (stereo not drawn) [nicotine],,,,above the HLC,chips in which the chemical is detected (RTgill-W1 cells [1]): 3 out of 3
"C[n+]1ccc(-c2cc[n+](C)cc2)cc1 [paraquat, paraquat dichloride]",3 out of 3,above the HLC,,,
"Oc1c(Cl)c(Cl)c(Cl)c(Cl)c1Cl [pentachlorophenate, sodium pentachlorophenate]",,between the MEG and the HLC,,,"detection level (RTgill-W1 cells [1]; lowest concentration causing significant impedance change in at least ten consecutive time intervals over 60 minutes): 9.4 µM; change in impedance compared to controls (RTgill-W1 cells [1]; one hour exposure, p<0.001): significant decrease; responsiveness after one year storage (RTgill-W1 cells [2]; 1 hour and 4 hour exposures, one year storage at 6° C.): significantly responsive; response to PCP exposure (RTgill-W1 cells [2]; chips stored at 6° C. unfed, all storage time points indicated): positive response; significance of response, 4 hours exposure (RTgill-W1 cells [2]; storage at 6° C., additional at 140 and 266 days, p<0.001, 3 replicate chips): significant responses; significance of response, 1 hour exposure (RTgill-W1 cells [2]; storage at 6° C., time points of 14-114 days and 364 days, p<0.001, 3 replicate chips): significant"
Oc1ccccc1 [phenol],,,,above the HLC,chips in which the chemical is detected (RTgill-W1 cells [1]): 3 out of 3
"O=S(=O)([O-])[O-].[Tl+].[Tl+] [thallium, thallium sulfate]",3 out of 3,above the HLC,,,
Cc1ccccc1 [toluene],,,significant decrease,between the MEG and the HLC,
mercuric chloride [mercury],,,significant decrease,between the MEG and the HLC,
sodium arsenite [arsenic],,,significant decrease,between the MEG and the HLC,
